Measured values reported in US11708348B2, “Protease inhibitors for treatment of coronavirus infections” (The Scripps Research Institute, priority 2021, dated 2023).
Read-outs that look alike come from different tables or passages of the source.

Tested on: SARS-CoV-2 strain USA-WA1/2020
Experiment: microbe, parasite or virus in culture
Format: cell-based
Conditions: Severe acute respiratory syndrome coronavirus 2, HeLa-ACE2, 24 h, HeLa-ACE2 cells, SARS-CoV-2 infection, 24 h, read-out: EC50, uM (Hela)

| SMILES | EC50 [µM] | EC50 (class symbols) [µM] | also measured |
| --- | --- | --- | --- |
| COC(=O)C(=O)N1C[C@@H]2CCC[C@@H]2[C@H]1C(=O)N[C@@H](C[C@@H]1CCNC1=O)C(=O)COC(F)(F)F [Compound 569, methyl 2-oxo-2-((1S,3aR,6aS)-1-(((S)-3-oxo-1-((S)-2-oxopyrrolidin-3-yl)-4-(trifluoromethoxy)butan-2-yl)carbamoyl)-hexahydrocyclo-penta[c]-pyrrol-2(1H)-yl)acetate] |  |  | EC50 (given as bound): > 1 µM |
| C=CCC(=O)N1CC2(CC2)C[C@H]1C(=O)N[C@@H](C[C@@H]1CCNC1=O)C(=O)COC(F)(F)F [Compound 689, (S)-5-(but-3-enoyl)-N-((S)-3-oxo-1-((S)-2-oxopyrrolidin-3-yl)-4-(trifluoromethoxy)butan-2-yl)-5-azaspiro[2.4]heptane-6-carboxamide] | 0.05 to 0.2 |  |  |
| CC(C)C[C@H](NC(=O)C(=O)Nc1ccccc1F)C(=O)N[C@@H](CC1CCCCC1)C(=O)COc1c(F)c(F)cc(F)c1F [Compound 80, N1-((S)-1-(((S)-1-cyclohexyl-3-oxo-4-(2,3,5,6-tetrafluorophenoxy)butan-2-yl)amino)-4-methyl-1-oxopentan-2-yl)-N2-(2-fluorophenyl)oxalamide] |  |  | EC50 (cells given as a bound): > 1 µM |
| CC(C)(C)C[C@H](NC(=O)C(=O)NC(C)(C)C)C(=O)N[C@@H](C[C@@H]1CCNC1=O)C(=O)COC(F)(F)F [Compound 172, N1-(tert-butyl)-N2-((S)-4,4-dimethyl-1-oxo-1-(((S)-3-oxo-1-((S)-2-oxopyrrolidin-3-yl)-4-(trifluoromethoxy)butan-2-yl)amino)pentan-2-yl)oxalamide] |  | < 0.05 |  |
| CC(C)(C)CC(O)C(=O)N1CC2(CC2)C[C@H]1C(=O)N[C@@H](C[C@@H]1CCNC1=O)C(=O)COC(F)(F)F (stereo partly drawn) [Compound 346, (6S)-5-(2-hydroxy-4,4-dimethylpentanoyl)-N-((S)-3-oxo-1-((S)-2-oxopyrrolidin-3-yl)-4-(trifluoromethoxy)butan-2-yl)-5-azaspiro[2.4]heptane-6-carboxamide] |  | < 0.05 |  |
| CC(C)C[C@H](NC(=O)[C@H](O)c1ccccc1F)C(=O)N[C@@H](C[C@@H]1CCNC1=O)C(=O)COC(F)(F)F [Compound 408, (S)-2-((R)-2-(2-fluorophenyl)-2-hydroxyacetamido)-4-methyl-N-((S)-3-oxo-1-((S)-2-oxopyrrolidin-3-yl)-4-(trifluoromethoxy)butan-2-yl)pentanamide] | < 0.05 |  |  |
| CC(C)C[C@@H](O)C(=O)N1CC[C@@H](C(C)(C)C)C[C@H]1C(=O)N[C@@H](C[C@@H]1CCNC1=O)C(=O)COC(F)(F)F [Compound 637, (2S,4R)-4-(tert-butyl)-1-((R)-2-hydroxy-4-methylpentanoyl)-N-((S)-3-oxo-1-((S)-2-oxopyrrolidin-3-yl)-4-(trifluoromethoxy)butan-2-yl)piperidine-2-carboxamide] | < 0.05 |  |  |
| CC(C)C[C@H](NC(=O)c1ncc(-c2ccccc2)[nH]1)C(=O)N[C@@H](C[C@@H]1CCNC1=O)C(=O)COC(F)(F)F [Compound 224, N-((S)-4-methyl-1-oxo-1-(((S)-3-oxo-1-((S)-2-oxopyrrolidin-3-yl)-4-(trifluoromethoxy)butan-2-yl)amino)pentan-2-yl)-5-phenyl-1H-imidazole-2-carboxamide] |  | < 0.05 |  |
| CC(C)C[C@H](NC(=O)C(=O)NC1(C(F)(F)F)CC1)C(=O)N[C@@H](C[C@@H]1CCNC1=O)C(=O)COC(F)(F)F [Compound 237, N1-((S)-4-methyl-1-oxo-1-(((S)-3-oxo-1-((S)-2-oxopyrrolidin-3-yl)-4-(trifluoromethoxy)butan-2-yl)amino)pentan-2-yl)-N2-(1-(trifluoromethyl)-cyclopropyl)oxalamide] |  | < 0.05 |  |
| CC1(C)[C@@H]2[C@@H](C(=O)N[C@@H](C[C@@H]3CCNC3=O)C(=O)COC(F)(F)F)N(C(=O)[C@H]3COCCO3)C[C@@H]21 [Compound 306, (1R,2S,5S)-3-((R)-1,4-dioxane-2-carbonyl)-6,6-dimethyl-N-((S)-3-oxo-1-((S)-2-oxopyrrolidin-3-yl)-4-(trifluoromethoxy)butan-2-yl)-3-azabicyclo[3.1.0]-hexane-2-carboxamide] |  | 0.05 to 0.2 |  |
| COc1ccc(/C=C/C[C@@H](O)C(=O)N2CC3(CC3)C[C@H]2C(=O)N[C@@H](C[C@@H]2CCNC2=O)C(=O)COC(F)(F)F)cc1 [Compound 666, (S)-5-((R,E)-2-hydroxy-5-(4-methoxyphenyl)pent-4-enoyl)-N-((S)-3-oxo-1-((S)-2-oxopyrrolidin-3-yl)-4-(trifluoromethoxy)butan-2-yl)-5-azaspiro[2.4]heptane-6-carboxamide] | 0.05 to 0.2 |  |  |
| CC(C)(C)C[C@H](NC(=O)[C@H]1CCCO1)C(=O)N[C@@H](C[C@@H]1CCNC1=O)C(=O)COC(F)(F)F [Compound 301, (R)-N-((S)-4,4-dimethyl-1-oxo-1-(((S)-3-oxo-1-((S)-2-oxopyrrolidin-3-yl)-4-(trifluoromethoxy)butan-2-yl)amino)pentan-2-yl)tetrahydrofuran-2-carboxamide] |  | < 0.05 |  |
| O=C1NCC[C@H]1C[C@H](NC(=O)[C@@H]1CC2(CC2)CN1C(=O)c1ccc(Cl)cc1F)C(=O)COC(F)(F)F [Compound 702, (S)-5-(4-chloro-2-fluorobenzoyl)-N-((S)-3-oxo-1-((S)-2-oxopyrrolidin-3-yl)-4-(trifluoromethoxy)butan-2-yl)-5-azaspiro[2.4]heptane-6-carboxamide] | 0.05 to 0.2 |  |  |
| CC(C)C[C@H](NC(=O)C(=O)Nc1ccccc1Cl)C(=O)N[C@@H](C[C@@H]1CCNC1=O)C(=O)COc1c(F)c(F)cc(F)c1F [Compound 46, N1-(2-chlorophenyl)-N2-((S)-4-methyl-1-oxo-1-(((S)-3-oxo-1-((S)-2-oxopyrrolidin-3-yl)-4-(2,3,5,6-tetrafluorophenoxy)butan-2-yl)amino)pentan-2-yl)oxalamide] |  | < 0.05 |  |
| CC(=O)N[C@@H](CC(C)C)C(=O)N[C@@H](C[C@@H]1CCNC1=O)C(=O)COC(F)(F)F [Compound 709, (S)-2-acetamido-4-methyl-N-((S)-3-oxo-l-((S)-2-oxopyrrolidin-3-yl)-4-(trifluoromethoxy)butan-2-yl)pentanamide] | 0.2 to 0.5 |  |  |
| O=C(NC1CC1)C(=O)N1C[C@@H]2CCC[C@@H]2[C@H]1C(=O)N[C@@H](C[C@@H]1CCNC1=O)C(=O)COC(F)(F)F [Compound 497, (1S,3aR,6aS)-2-(2-(cyclopropylamino)-2-oxoacetyl)-N-((S) -3-oxo-1-((S)-2-oxopyrrolidin-3-yl)-4-(trifluoromethoxy)butan-2-yl)octahydrocyclo-penta[c]pyrrole-1-carboxamide] | 0.05 to 0.2 |  |  |
| CC(C)C[C@H](NC(=O)C(=O)NCc1cc(Cl)ccc1Cl)C(=O)N[C@@H](C[C@@H]1CCNC1=O)C(=O)COc1c(F)c(F)cc(F)c1F [Compound 59, Nl-(2,5-dichlorobenzyl)-N2-((S)-4-methyl-1-oxo-1-(((S)-3-oxo-1-((S)-2-oxopyrrolidin-3-yl)-4-(2,3,5,6-tetrafluorophenoxy)butan-2-yl)amino)pentan-2-yl)oxalamide] |  | 0.2 to 0.5 |  |
| CC(C)C[C@@H](O)C(=O)N1C2CCC(CC2)[C@H]1C(=O)N[C@@H](C[C@@H]1CCNC1=O)C(=O)COC(F)(F)F [Compound 642, (S)-2-((R)-2-hydroxy-4-methylpentanoyl)-N-((S)-3-oxo-1-((S)-2-oxopyrrolidin-3-yl)-4-(trifluoromethoxy)butan-2-yl)-2-azabicyclo[2.2.2]octane-3-carboxamide] | < 0.05 |  |  |
